Literature values, collected in patent publication US20250262160A1, “COMPOSITIONS FOR MODIFIED RELEASE OF ACTIVE INGREDIENTS” (PROLEVI BIO AB, priority 2022, published 2025).
Where two headings read alike, the source gives them in different places.

Experiments:
[1] = assumed parameter for IVIVC, as reported in literature

| Compound | Half-life (T1/2) [1] | oral bioavailability (BA) [1] | Volume of distribution (Vd) ([1]; body weight 75 Kg) | Volume of distribution (Vd) (body weight 75 kg euthyroid individual, parameter used for IVIVC) | Half-life (t½) after baseline (120 ng/dL) correction (estimated, parameter used for IVIVC) | elimination half-life (in adults) | biological half-life (in vivo) | estimated baseline corrected half-life (in vivo) | bioavailability (parameter used for IVIVC) | Tmax (thyroidectomized patients administered exogenous hormone) | T1/2 half-life (thyroidectomized patients administered exogenous hormone, after last LT3 dose withdrawal) |
| --- | --- | --- | --- | --- | --- | --- | --- | --- | --- | --- | --- |
| COc1ccc2[nH]cc(CCNC(C)=O)c2c1 [melatonin] | 0.75 h | 15% | 1602 L |  |  |  |  |  |  |  |  |
| N[C@@H](Cc1cc(I)c(Oc2ccc(O)c(I)c2)c(I)c1)C(=O)O [Formulation T3, triiodothyronine] |  |  |  | 0.2 L/kg | 4 h | 23 to 25 h | 2.5 days | 4 h | 95% | 2.9 h | 3.62 h |
